Values belong to the molecule of their own block, whether it stands above or below them.
Assay: solvent given as SMILES

Compound: O=C1CCCC2=C1CC1=C(CCCC1=O)N2NC(=O)c1ccccc1
absorption maximum (in C1CCOC1): 366 nm
absorption maximum (in CC#N): 368 nm
absorption maximum (in CC(C)=O): 366 nm
absorption maximum (in CCCCCO): 376 nm
absorption maximum (in CO): 374 nm
absorption maximum (in ClC(Cl)Cl): 370 nm
absorption maximum (in ClCCl): 364 nm

absorption maximum (in CO): 450 nm
Compound: O=C1C=C(Nc2ccccc2[N+](=O)[O-])C(=O)c2ccccc21

Compound: C=C(C)C(CN1C(=O)c2cccc3cccc(c23)C1=O)OO (configuration not stated)
absorption maximum (in CCO): 332 nm

absorption maximum (in CC#N): 296 nm
absorption maximum (in CCOC(C)=O): 296 nm
absorption maximum (in CO): 294 nm
absorption maximum (in O): 294 nm
Compound: O=c1[nH]c(=O)c2scc([C@H]3C[C@H](O)[C@@H](CO)O3)c2[nH]1

absorption maximum (in CC#N): 376 nm
Compound: CCOC(=O)c1c2c3c(ccc([N+](=O)[O-])c3c3cc4c(cc13)[Si](C)(C)O[Si]4(C)C)N(C)C2=O

Compound: c1ccc(-c2nc(-c3ccccc3)nc(-c3ccc(-n4c5ccccc5c5cc6c7ccccc7n7c8ccccc8c(c54)c67)cc3)n2)cc1
absorption maximum (in Cc1ccccc1): 383 nm

absorption maximum (in CS(C)=O): 441 nm
absorption maximum (in ClCCl): 442 nm
Compound: O=c1oc2ccccc2c2c1c(=O)oc1cc(O)c3ccccc3c12

absorption maximum (in C1CCOC1): 597 nm
Compound: COc1ccc(C2=C(c3ccc(OC)cc3)C(c3ccc(OC)cc3)=[N+]3C2=C(c2ccc(OC)cc2)c2c(-c4ccc(OC)cc4)c(-c4ccc(OC)cc4)c(-c4ccc(OC)cc4)n2[B-]3(F)F)cc1

absorption maximum (in C1COCCO1): 352 nm
absorption maximum (in CC#N): 349 nm
absorption maximum (in CO): 343 nm
Compound: CN(C)c1ccc(/C=C/C=C/C2=NC3C(=O)NC(N)=NC3N2[C@H]2C[C@H](O)[C@@H](CO)O2)cc1 (some centres not stated)

absorption maximum (in C1CCOC1): 346 nm
Compound: N#Cc1c(N2CCCCC2)cc(-c2ccc3ccccc3c2)c2c1C(=O)c1ccccc1-2

absorption maximum (in ClCCl): 546 nm
Compound: F[B-]1(F)n2c(Cl)c(Cl)c(Br)c2C(Cl)=C2C(Br)=C(Cl)C(Cl)=[N+]21

absorption maximum (in C1COCCO1): 415 nm
Compound: CCN(CC)c1ccc(Nc2cc3oc(-c4ccc(C#N)cc4)nc3c3ccccc23)c(C)c1

absorption maximum (in ClC(Cl)Cl): 340 nm
Compound: C(#Cc1ccccc1)C(C#Cc1ccccc1)=Cc1ccccc1

Compound: CCOC(=O)CN1C(=O)C2=C(c3ccccc3)N(CC(=O)OCC)C(=O)C2=C1c1ccccc1
absorption maximum (in CC#N): 454 nm
absorption maximum (in CS(C)=O): 460 nm
absorption maximum (in Cc1ccccc1): 462 nm

absorption maximum (in ClCCl): 537 nm
Compound: Cc1cc(C)c(C2=C3C=C(/C=C/C(=O)OCc4ccccc4)C=[N+]3[B-](F)(F)n3cccc32)c(C)c1

absorption maximum (in C1CCOC1): 353 nm
Compound: N#Cc1c(N2CCCCC2)cc(-c2cccc3ccccc23)c2c1CCc1ccccc1-2

Compound: CCn1c2ccccc2c2cc(C#Cc3cc(C#Cc4ccc5c(c4)c4ccccc4n5CC)nc(S(C)(=O)=O)n3)ccc21
absorption maximum (in C1CCOC1): 408 nm
absorption maximum (in CCOC(C)=O): 405 nm
absorption maximum (in CN(C)C=O): 415 nm
absorption maximum (in Cc1ccccc1): 411 nm
absorption maximum (in ClCCl): 417 nm

Compound: CC1(C)c2ccccc2N(c2ccc3c(ccc4nc5ccc6cc(N7c8ccccc8C(C)(C)c8ccccc87)ccc6c5nc43)c2)c2ccccc21
absorption maximum (in C1CCCCC1): 413 nm
absorption maximum (in C1CCOC1): 416 nm
absorption maximum (in CN(C)C=O): 418 nm
absorption maximum (in Cc1ccccc1): 416 nm
absorption maximum (in ClCCl): 416 nm

absorption maximum (in ClC(Cl)Cl): 434 nm
Compound: CCN(CC)c1ccc2cc(-c3cn4cc(OC)ccc4n3)c(=O)oc2c1

absorption maximum (in C1COCCO1): 440 nm
Compound: CC(C)CN1C(=O)/C(=C/c2ccc(C#N)cc2)C=C1c1ccccc1

absorption maximum (in ClC(Cl)Cl): 493 nm
Compound: N#Cc1nc(N(Cc2ccccc2)Cc2ccccc2)c(C#N)nc1N(Cc1ccccc1)Cc1ccccc1

Compound: Cn1c(=O)c(/N=N/c2ccc(Nc3ccccc3)c(S(=O)(=O)O)c2)c(O)c2ccccc21
absorption maximum (in C1CCOC1): 412 nm
absorption maximum (in CC(C)=O): 407 nm
absorption maximum (in CCOC(C)=O): 411 nm
absorption maximum (in CO): 400 nm
absorption maximum (in CS(C)=O): 396 nm
absorption maximum (in Cc1ccccc1): 414 nm
absorption maximum (in ClCCl): 415 nm
absorption maximum (in O): 385 nm

absorption maximum (in ClCCl): 360 nm
absorption maximum (in O): 360 nm
Compound: Oc1c(-c2ccco2)cccc1-c1nc2ccccc2s1

absorption maximum (in ClCCl): 592 nm
Compound: C1=CC2C=c3c(cc4cccc5cc6ccccc6c3c45)C3=c4ccccc4=CC(=C1)C32 (configuration not stated)

absorption maximum (in CC#N): 532 nm
absorption maximum (in CCCCCC): 559 nm
absorption maximum (in CO): 552 nm
Compound: COc1ccc2c(c1)N(c1ccccc1-c1ccccc1)c1cc3c(cc1=N2)Oc1c(cc(C(C)(C)C)cc1C(C)(C)C)N=3

absorption maximum (in CC#N): 538 nm
Compound: CC1=C(c2ccccc2)C2=Cc3c(-c4ccccc4)c(C)c(C)n3[B-](F)(F)[N+]2=C1C

Compound: c1ccc2c(c1)c1ccccc1n2-c1cc(-c2nc3ccccn3n2)cc(-n2c3ccccc3c3ccccc32)c1
absorption maximum (in Cc1ccccc1): 338 nm

absorption maximum (in ClCCl): 370 nm
Compound: CCn1c2cc(-c3cccs3)ccc2c2ccc(-c3cccs3)cc21

Compound: O=Cc1cc(O)ccc1O
absorption maximum (in C1CCOC1): 366 nm
absorption maximum (in C1COCCO1): 363 nm
absorption maximum (in CC#N): 362 nm
absorption maximum (in CC(C)=O): 364 nm
absorption maximum (in CCCO): 367 nm
absorption maximum (in CCO): 367 nm
absorption maximum (in CN(C)C=O): 365 nm
absorption maximum (in CN(C)P(=O)(N(C)C)N(C)C): 369 nm
absorption maximum (in CNC=O): 358 nm
absorption maximum (in CO): 364 nm
absorption maximum (in CS(C)=O): 366 nm
absorption maximum (in ClC(Cl)Cl): 362 nm
absorption maximum (in NC=O): 363 nm

Compound: Cc1ccc(-c2c3ccc([nH]3)c3nc(c(-c4ccc(C#N)cc4)c4ccc([nH]4)c4ccc([nH]4)c(-c4ccc(C)cc4)c4ccc2o4)C=C3)cc1
absorption maximum (in C1CCOC1): 451 nm
absorption maximum (in Cc1ccccc1): 452 nm
absorption maximum (in c1ccccc1): 452 nm

absorption maximum (in CCOC(C)=O): 392 nm
Compound: C[Si](C)(C)c1cc2c(cc3ccc4cccc5ccc2c3c45)[nH]1

absorption maximum (in ClCCl): 379 nm
Compound: C[Si]1(C)c2cc(-c3ccccc3)ccc2C=Cc2ccc(-c3ccccc3)cc21

absorption maximum (in ClC(Cl)Cl): 432 nm
Compound: F[B-]1(F)OC(c2ccccc2)=Cc2c3ccccc3c3ccccc3[n+]21

absorption maximum (in ClC(Cl)Cl): 470 nm
Compound: Cc1c2c(c(C)c3ccccc13)C1=CC3Nc4ccccc4NC3C=C12 (configuration not stated)

Compound: CN(C)c1ccc(C(=O)Nc2ccc([N+](=O)[O-])cc2)cc1
absorption maximum (in C1CCCCC1): 337 nm
absorption maximum (in C1CCOC1): 353 nm
absorption maximum (in CC#N): 354 nm
absorption maximum (in CCOCC): 345 nm

absorption maximum (in ClCCl): 704 nm
Compound: COc1c2ccccc2c(OC)c2c(C#Cc3ccccc3)c3cc4ccccc4cc3c(C#Cc3ccccc3)c12

Compound: O=Cc1nc2ccc(C#Cc3ccc(N(c4ccccc4)c4ccccc4)cc3)cc2s1
absorption maximum (in Cc1ccccc1): 412 nm

absorption maximum (in O): 290 nm
Compound: CCn1c(-c2ccc(-c3ccc(-c4ccc(-c5n(CC)c6ccccc6[n+]5CC)cc4)c(C)c3)cc2)[n+](CC)c2ccccc21

Compound: S=P1(c2ccccc2)c2cccc3ccc4ccc1n4c23 (configuration not stated)
absorption maximum (in ClCCl): 407 nm

absorption maximum (in CS(C)=O): 440 nm
absorption maximum (in O): 485 nm
absorption maximum (in OCC(O)CO): 500 nm
Compound: C[n+]1ccnc(/C=C/c2ccc(N(c3ccccc3)c3ccc(/C=C/c4c[n+](C)ccn4)cc3)cc2)c1

absorption maximum (in CCO): 425 nm
Compound: CCCCOc1c(C=C2N(C)c3ccccc3C2(C)C)c(=O)c1=O

absorption maximum (in CS(C)=O): 351 nm
Compound: Clc1cccc(-c2nc3sc4ccccc4c3s2)c1

absorption maximum (in ClCCl): 432 nm
Compound: CCCCCCCCCCCCN1C(=O)c2c(c3ccc4cc(-c5ccccc5)c(OC)cc4c3c3c2ccc2cc(-c4ccccc4)c(OC)cc23)C1=O

Compound: CC(C)[Si](C#Cc1c2ccccc2c(C#Cc2c3ccccc3c(C#Cc3c4ccccc4c(C#Cc4c5ccccc5c(C#Cc5c6ccccc6c(C#C[Si](C(C)C)(C(C)C)C(C)C)c6ccccc56)c5ccccc45)c4ccccc34)c3ccccc23)c2ccccc12)(C(C)C)C(C)C
absorption maximum (in Cc1ccccc1): 585 nm

absorption maximum (in CCO): 381 nm
Compound: COc1cc2c(cc1F)c(=O)c1cc(F)c(OC)cc1n2Cc1ccccc1

absorption maximum (in ClCCl): 358 nm
Compound: COc1ccc2cc(C#N)c(=N)oc2c1

Compound: c1ccc2c(c1)c1ccccc1n2-c1ccc(-c2cc3ccc(-c4ccc5cc(-c6ccc(-n7c8ccccc8c8ccccc87)cc6)oc5c4)cc3o2)cc1
absorption maximum (in Cc1ccccc1): 365 nm
absorption maximum (in c1ccc2c(c1)c1ccccc1n2-c1ccc(-c2ccc(-n3c4ccccc4c4ccccc43)cc2)cc1): 376 nm

Compound: CN(C)c1ccc(/C=C/c2nc3ccccc3s2)cc1
absorption maximum (in C1CCCCC1): 384 nm
absorption maximum (in C1CCOC1): 396 nm
absorption maximum (in C1COCCO1): 393 nm
absorption maximum (in CC#N): 401 nm
absorption maximum (in CC(C)O): 394 nm
absorption maximum (in CCCCCC): 384 nm
absorption maximum (in CCCCCCC): 387 nm
absorption maximum (in CCO): 396 nm
absorption maximum (in CCOC(C)=O): 391 nm
absorption maximum (in CCOCC): 390 nm
absorption maximum (in CN(C)C=O): 402 nm
absorption maximum (in CO): 397 nm
absorption maximum (in CS(C)=O): 405 nm
absorption maximum (in O): 402 nm
absorption maximum (in OCC(O)CO): 409 nm

absorption maximum (in ClCCl): 447 nm
Compound: CCCCC(CC)Cn1c2cc(C#N)ccc2c2ccc(C#Cc3ccc4ccc5c(C#Cc6ccc7c8ccc(C#N)cc8n(CC(CC)CCCC)c7c6)cc(C#Cc6ccc7c8ccc(C#N)cc8n(CC(CC)CCCC)c7c6)c6ccc3c4c56)cc21 (configuration not stated)

Compound: CC(C)(C)c1cc(C(C)(C)C)c(-c2nnc(-c3ccc(-n4c5ccccc5c5ccccc54)cc3)o2)c(C(C)(C)C)c1
absorption maximum (in Cc1ccccc1): 340 nm

absorption maximum (in CC#N): 397 nm
Compound: Oc1ccc2ccccc2c1/C=N/C1CCCCC1/N=C/c1c(O)ccc2ccccc12 (configuration not stated)

absorption maximum (in ClCCl): 738 nm
Compound: CCN(CC)c1ccc2c(-c3ccccc3C(=O)O)c3c([o+]c2c1)/C(=C/c1ccc(N2CCCC2)s1)CCC3

Compound: c1ccc(-c2oc(-c3ccccc3)c3ccccc23)cc1
absorption maximum (in C1CCCCC1): 411 nm
absorption maximum (in C1CCOC1): 413 nm
absorption maximum (in CC#N): 411 nm
absorption maximum (in CCO): 411 nm
absorption maximum (in CN(C)C=O): 415 nm
absorption maximum (in CS(C)=O): 416 nm
absorption maximum (in Cc1ccccc1): 414 nm

absorption maximum (in c1ccccc1): 420 nm
Compound: CCOC(=O)c1sc2nc3c(c(C#N)c2c1N)CCCC3

Compound: C1=Nc2cccc3cccc(c23)N1
absorption maximum (in CC#N): 329 nm
absorption maximum (in CO): 329 nm
absorption maximum (in CS(C)=O): 333 nm
absorption maximum (in Cc1ccccc1): 331 nm

absorption maximum (in ClCCl): 310 nm
Compound: CCOC(=O)C1=C(C(=O)OC)N2CCc3cc(OC)c(OC)cc3C2=C[C@H](c2ccc(Cl)cc2)C12c1ccccc1-c1ccccc12

absorption maximum (in ClCCl): 350 nm
Compound: CN1c2ccc3c(c2-c2ccccc2S1(=O)=O)-c1ccccc1S(=O)(=O)N3C
